Here are results for 3 compounds from ChEMBL document CHEMBL3400001, “Tricyclic 1,5-naphthyridinone oxabicyclooctane-linked novel bacterial topoisomerase inhibitors as broad-spectrum antibacterial agents-SAR of left-hand-side moiety (Part-2)” (Bioorg Med Chem Lett, 2015).

A short description of data set [1]: AUC in C57BL/6 mouse at 1 mg/kg, iv. The arrangement: dose 1 mg/kg, route intravenous. The format is ADME, organism-based. The note with it: plasma.
The nature of data set [2]: Oral bioavailability in C57BL/6 mouse at 2 mg/kg. The data set is classed as ADME, organism-based. The note with it: in vivo.
Data set [3] has as its system Enterococcus faecium. The data set can be described thus: Antimicrobial activity against vancomycin-resistant Enterococcus faecium A2373 expressing VanA by micro broth dilution or agar based method. The data set is classed as functional. The following applies: Enterococcus faecium, A2373; read-out: MIC. On the technique in general: In broth dilution the organism is exposed to a series of concentrations in liquid medium.

Data set [4] relates to Enterococcus faecalis. Kind of data set: Antimicrobial activity against Enterococcus faecalis ATCC 29212 MB by micro broth dilution or agar based method. The format is functional. The following applies: Enterococcus faecalis, ATCC 29212 MB; read-out: MIC.
Data set [5] relates to Haemophilus influenzae. Kind of data set: Antimicrobial activity against Haemophilus influenzae ATCC 49247 by micro broth dilution or agar based method. The format is functional.
The subject of data set [6] is Moraxella catarrhalis. The data set can be described thus: Antimicrobial activity against Moraxella catarrhalis ATCC 25238 by micro broth dilution or agar based method. The format is functional.
For data set [7], the system named is Staphylococcus aureus. Kind of data set: Antimicrobial activity against Staphylococcus aureus infected in intravenously dosed mouse model of bacteremia. The data set is classed as functional. The following applies: iv.
Data set [8] can be described thus: Volume of distribution at steady state in C57BL/6 mouse at 1 mg/kg, iv or 2 mg/kg, po. The format is ADME, organism-based. The following applies: in vivo, read-out: Vdss.
Data set [9] concerns Escherichia coli. The data set can be described thus: Antimicrobial activity against Escherichia coli ATCC 25922 by micro broth dilution or agar based method. The format is functional. The note with it: Escherichia coli, ATCC 25922; read-out: MIC.
Data set [10] relates to Streptococcus pneumoniae. Kind of data set: Antimicrobial activity against Streptococcus pneumoniae IID554 by micro broth dilution or agar based method. The format is functional. The following applies: Streptococcus pneumoniae, IID554; read-out: MIC.
Data set [11] deals with Acinetobacter baumannii. The data set can be described thus: Antimicrobial activity against Acinetobacter baumannii IID876 by micro broth dilution or agar based method. The format is functional. The following applies: Acinetobacter baumannii, IID876; read-out: MIC.
The subject of data set [12] is Staphylococcus aureus. Kind of data set: Antimicrobial activity against Staphylococcus aureus Smith by micro broth dilution or agar based method. The following applies: Staphylococcus aureus, Smith; read-out: MIC. The format is functional.
In data set [13] the test system is Staphylococcus aureus. The data set can be described thus: Antimicrobial activity against Staphylococcus aureus infected in orally dosed mouse model of bacteremia. The data set is classed as functional. The note with it: po.
A short description of data set [14]: Plasma clearance in C57BL/6 mouse at 1 mg/kg, iv or 2 mg/kg, po. The data set is classed as ADME, organism-based.
For data set [15], the system named is Pseudomonas aeruginosa. Kind of data set: Antimicrobial activity against Pseudomonas aeruginosa PAO1 by micro broth dilution or agar based method. The format is functional. The following applies: Pseudomonas aeruginosa, PAO1; read-out: MIC.
The nature of data set [16]: Half life in C57BL/6 mouse at 1 mg/kg, iv or 2 mg/kg, po. The format is ADME, organism-based. The following applies: in vivo.
The test system of data set [17] is Staphylococcus aureus. Kind of data set: Antimicrobial activity against Staphylococcus aureus infected in mouse model of bacteremia at 50 mg/kg, iv. The arrangement: dose 50 mg/kg. The data set is classed as functional, organism-based.
Data set [18] relates to Staphylococcus aureus. Kind of data set: Antimicrobial activity against Staphylococcus aureus infected in mouse model of bacteremia at 50 mg/kg, po. The format is functional, organism-based. The arrangement: dose 50 mg/kg.
The subject of data set [19] is Staphylococcus aureus. The data set can be described thus: Antimicrobial activity against quinolone-sensitive Staphylococcus aureus MS5935.
Data set [20] concerns Staphylococcus aureus. Kind of data set: Antimicrobial activity against quinolone-resistant Staphylococcus aureus MS5935. The format is functional.
The subject of data set [21] is Staphylococcus aureus. The data set can be described thus: Ratio of MIC for quinolone-resistant Staphylococcus aureus MS5935 to MIC for quinolone-[…]. The data set is classed as functional.

A word on the AUC: it is the area under the concentration-time curve, a measure of exposure. Low readings indicate less exposure, high ones more exposure. As usually defined, the bioavailability is the share of a dose that reaches the circulation, judged against a reference dose that is usually intravenous. Read a low bioavailability as poor availability. Usually ED50 stands for the dose that gives a 50% effect, or the effect in half of the subjects. A lower ED50 goes with greater potency. As usually defined, the half-life is how long it takes for the measured level to halve.

≈ marks a conversion by molar mass, not a printed value. Calls of active or inactive are those of the source. The calls are words filed in the database; no cut-off is given here.

Consider `O=C1COc2ccc(CNC34CCC(C[C@]5(O)Cn6c(=O)ccc7ncc(F)c5c76)(CC3)OC4)nc2N1`, for which, in data set [1], the AUC worked out at 0.45 µM·h. In [2], this compound showed a bioavailability of 40%. Besides, the MIC turned out to be 8 µg/mL (≈ 15.8 µM) in [3]; 4 µg/mL (≈ 7.88 µM) in data set [4]; 1 µg/mL (≈ 1.97 µM) in data set [5]; 0.25 µg/mL (≈ 0.493 µM) in [6]; 4 µg/mL (≈ 7.88 µM) in data set [9]; 0.25 µg/mL (≈ 0.493 µM) in data set [10]. The MIC in [11] stood at 2 µg/mL (≈ 3.94 µM); in [12], 0.25 µg/mL (≈ 0.493 µM); in [15], 16 µg/mL (≈ 31.5 µM). The ED50 in data set [7] was less than 3.2 mg/kg; in data set [13], 27 mg/kg. For the same compound, the Vd in data set [8] came out at 11.8 L/kg. For the same compound, the clearance in data set [14] was 65 mL/min/kg. The compound further had a half-life in data set [16] of 4 h.
As to `O=C1COc2ccc(CNC34CCC(C[C@@]5(O)Cn6c(=O)ccc7ncc(F)c5c76)(CC3)OC4)nc2N1`, the MIC in [3] is 32 µg/mL (≈ 63.1 µM); in [4], 8 µg/mL (≈ 15.8 µM); in data set [9], 16 µg/mL (≈ 31.5 µM); in data set [10], 4 µg/mL (≈ 7.88 µM); in [11], 32 µg/mL (≈ 63.1 µM); in [12], 2 µg/mL (≈ 3.94 µM). The MIC in data set [15] amounted to 32 µg/mL (≈ 63.1 µM). Besides, the outcome in data set [17] and in [18] was inactive.
Take `C[C@H]1COc2c(N3CCN(C)CC3)c(F)cc3c(=O)c(C(=O)O)cn1c23.C[C@H]1COc2c(N3CCN(C)CC3)c(F)cc3c(=O)c(C(=O)O)cn1c23.O` [LEVOFLOXACIN]: the results for the MIC in [19] and in data set [20] were 0.25 µg/mL and more than 16 µg/mL, respectively. Moreover, in data set [21], the Ratio is reported as less than 4.
